Laboratory results: patent US9216991B2 (Ares Trading S.A., priority 2012, dated 2015)
Where a name gives a salt, the structure may show the parent alone.

target: T1, IRAK4 (Homo sapiens, UniProt Q9NWZ3); experiment: IRAK4 Enzymatic Assay; assay type: biochemical; conditions: His-TEV-IRAK4 20 ng/well, ATP 2 μM, STK1-biotin peptide 300 nM, 3 hours at 30° C., FlashPlate radioactivity
T1 construct: His (N); TEV cleavage site (N)
T1 sequence (Q9NWZ3 1-460): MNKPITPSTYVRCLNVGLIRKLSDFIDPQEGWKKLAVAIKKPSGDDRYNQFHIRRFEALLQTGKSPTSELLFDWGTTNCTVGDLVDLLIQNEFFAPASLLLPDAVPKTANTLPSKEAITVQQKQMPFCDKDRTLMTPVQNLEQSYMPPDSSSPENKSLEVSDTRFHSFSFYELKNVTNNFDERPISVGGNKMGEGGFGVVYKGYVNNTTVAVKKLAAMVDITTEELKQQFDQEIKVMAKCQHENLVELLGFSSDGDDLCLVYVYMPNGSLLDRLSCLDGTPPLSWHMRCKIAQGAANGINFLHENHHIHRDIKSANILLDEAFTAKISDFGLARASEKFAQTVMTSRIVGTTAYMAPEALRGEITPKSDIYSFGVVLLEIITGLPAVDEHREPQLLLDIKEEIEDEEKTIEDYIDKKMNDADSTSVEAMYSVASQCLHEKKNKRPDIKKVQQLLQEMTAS
Method: IRAK4 is a human purified recombinant enzyme (His-TEV-IRAK1 (194-712)
IRAK4 hydrolyses ATP, autophosphorylates and phosphorylates a Serine/Threonine generic peptidic substrate (STK: 61ST1BLC from CisBio International based in Bagnols/Cèze FR).
Measurement of IRAK-4 inhibition is performed in streptavidin coated 384 well FlashPlate (PerkinElmer #SMP410A). His-TEV-IRAK4 (20 ng/well), ATP (2 μM, [^33P]ATP 0.25 μCi/well), STK1-biotin peptide (300 nM) and compounds in DMSO (range of concentrations from 20 μM to 1nM) or controls (2% DMSO) are incubated for 3 hours at 30° C. in assay buffer: Hepes pH7.0 50 mM, Fatty acid-free BSA 0.1%, Dithiothreitol DTT 2 mM, MgCl2 10 mM, EGTA 0.5 mM, Tween-20 0.01%, MnCl2 5 mM.
Kinase reaction is stopped by addition of EDTA. Supernatant is discarded, plates are washed three times with 150 mM NaCl and radioactivity is then measured in a Microbeta Trilux reader.

CN(C)C(=O)C1CCC(n2cc(-c3cnc(-c4cccc(-c5cnn(C)c5)c4)nc3)cn2)CC1 (mixture of isomers) [Example 121, 4-(4-{2-[3-(1-Methyl-1H-pyrazol-4-yl)-phenyl]-pyrimidin-5-yl}-pyrazol-1-yl)-cyclohexanecarboxylic acid dimethylamide] and CC(=O)N1CCC(n2cc(-c3cnc(-c4cccc(-c5cnn(C)c5)c4)nc3)cn2)CC1 [Example 5, 1-[4-(4-{2-[3-(1-Methyl-1H-pyrazol-4-yl)-phenyl]-pyrimidin-5-yl}-pyrazol-1-yl)-piperidin-1-yl]-ethanone] cannot be ordered by IC50: less than 100 nM for the first, less than 100 nM for the second.

CN(C)C(=O)C1CC2COCC(C1)C2n1cc(-c2cnc(-c3cccc(-c4cnn(C)c4)c3)nc2)cn1 (mixture of isomers) [Example 273, trans,cis-9-(4-{2-[3-(1-Methyl-1H-pyrazol-4-yl)-phenyl]-pyrimidin-5-yl}-pyrazol-1-yl)-3-oxa-bicyclo[3.3.1]nonane-7-carboxylic acid dimethylamide] and CNC(=O)[C@H]1CCC[C@@H](n2cc(-c3cnc(-c4cccc(-c5cnn(C)c5)c4)nc3)cn2)C1 (relative stereo) [Example 180, cis-3-(4-{2-[3-(1-Methyl-1H-pyrazol-4-yl)-phenyl]-pyrimidin-5-yl}-pyrazol-1-yl)-cyclohexanecarboxylic acid methylamide] fall in the same range of IC50: 100 to 1000 nM for the first, 100 to 1000 nM for the second.

First: Cn1cc(-c2cccc(-c3ncc(-c4cnn([C@@H]5CCC[S@@+]([O-])C5)c4)cn3)c2)cn1 (racemic) [Example 235, 2-[3-(1-Methyl-1H-pyrazol-4-yl)-phenyl]-5-[1-(Trans-1-oxo-tetrahydro-thiopyran-3-yl)-1H-pyrazol-4-yl]-pyrimidine]
Second: Cn1cc(-c2cccc(-c3ncc(-c4cnn([C@H]5CCC[S@@+]([O-])C5)c4)cn3)c2)cn1 (racemic) [Example 236, 2-[3-(1-Methyl-1H-pyrazol-4-yl)-phenyl]-5-[1-(Cis-1-oxo-tetrahydro-thiopyran-3-yl)-1H-pyrazol-4-yl]-pyrimidine]
The IC50 of the first is higher: 100 to 1000 nM for the first, less than 100 nM for the second. The second is the more potent here.

Compared with CNC(=O)[C@H]1CCC[C@H](n2cc(-c3cnc(-c4cccc(-c5cnn(C)c5)c4)nc3)cn2)C1 (relative stereo) [Example 181, trans-3-(4-{2-[3-(1-Methyl-1H-pyrazol-4-yl)-phenyl]-pyrimidin-5-yl}-pyrazol-1-yl)-cyclohexanecarboxylic acid methylamide], Cn1cc(-c2cccc(-c3ncc(-c4cnn(C5CCC[C@H](S(C)(=O)=O)C5)c4)cn3)c2)cn1 (single isomer, unassigned) [Example 279, 5-[1-(Cis-3-Methanesulfonyl-cyclohexyl)-1H-pyrazol-4-yl]-2-[3-(1-methyl-1H-pyrazol-4-yl)-phenyl]-pyrimidine] is lower in IC50: 100 to 1000 nM for the first, less than 100 nM for the second.

First: CO[C@H]1CN(C(=O)[C@H]2CC[C@H](n3cc(-c4cnc(-c5cccc(-c6cnn(C)c6)c5)nc4)cn3)CC2)C[C@@H]1O (relative stereo) [Example 245, (Trans-3-Hydroxy-4-methoxy-pyrrolidin-1-yl)-[4-Trans-(4-{2-[3-(1-methyl-1H-pyrazol-4-yl)-phenyl]-pyrimidin-5-yl}-pyrazol-1-yl)-cyclohexyl]-methanone]
Second: CC(=O)N1CC[C@@H](n2cc(-c3cnc(-c4cccc(-c5cnn(C)c5)c4)nc3)cn2)[C@H](O)C1 (single isomer, unassigned) [Example 201]
The IC50 of the first is lower: less than 100 nM for the first, 100 to 1000 nM for the second.

First: Cn1cc(-c2cccc(-c3ncc(-c4cnn([C@H]5CCC[C@@H](N6CCOC6=O)C5)c4)cn3)c2)cn1 (relative stereo) [Example 257, 3-[cis-3-(4-{2-[3-(1-Methyl-1H-pyrazol-4-yl)-phenyl]-pyrimidin-5-yl}-pyrazol-1-yl)-cyclohexyl]-oxazolidin-2-one]
Second: Cn1cc(-c2cccc(-c3ncc(-c4cnn(C5CCC[C@@H](S(C)(=O)=O)C5)c4)cn3)c2)cn1 (single isomer, unassigned) [Example 282, 5-[1-(trans-3-Methanesulfonyl-cyclohexyl)-1H-pyrazol-4-yl]-2-[3-(1-methyl-1H-pyrazol-4-yl)-phenyl]-pyrimidine]
The IC50 of the first is lower: less than 100 nM for the first, 100 to 1000 nM for the second. The first is the more potent here.

Cn1cc(-c2cccc(-c3ncc(-c4cnn([C@@H]5CCNC[C@@H]5F)c4)cn3)c2)cn1 (relative stereo) [Example 265] and Cn1cc(-c2cccc(-c3ncc(-c4cnn(C5CCNCC5)c4)cn3)c2)cn1 [Example 1, 2-[3-(1-Methyl-1H-pyrazol-4-yl)-phenyl]-5-(1-piperidin-4-yl-1H-pyrazol-4-yl)-pyrimidine hydrochloride] fall in the same range of IC50: 100 to 1000 nM for the first, 100 to 1000 nM for the second.

CC(=O)N1CC[C@H](n2cc(-c3cnc(-c4cccc(-c5cnn(C)c5)c4)nc3)cn2)[C@@H](O)C1 (single isomer, unassigned) [Example 202] and CC(=O)N1CC[C@@H](n2cc(-c3cnc(-c4cccc(-c5cnn(C)c5)c4)nc3)cn2)[C@H](O)C1 (single isomer, unassigned) [Example 226] fall in the same range of IC50: 100 to 1000 nM for the first, 100 to 1000 nM for the second.

Cc1cc(-c2cccc(-c3ncc(-c4cnn([C@H]5CCCS(=O)(=O)C5)c4)cn3)c2)cnn1 (single isomer, unassigned) [Example 240] and Cc1cc(-c2cccc(-c3ncc(-c4cnn([C@@H]5CCCS(=O)(=O)C5)c4)cn3)c2)cnn1 (single isomer, unassigned) [Example 241] fall in the same range of IC50: 100 to 1000 nM for the first, 100 to 1000 nM for the second.

Cn1cc(-c2cccc(-c3ncc(-c4cnn(C5CCC6(CCC(=O)N6)CC5)c4)cn3)c2)cn1 (single isomer, unassigned) [Example 251, Trans-8-(4-{2-[3-(1-Methyl-1H-pyrazol-4-yl)-phenyl]-pyrimidin-5-yl}-pyrazol-1-yl)-1-aza-spiro[4.5]decan-2-one] and CN1CCC(n2cc(-c3cnc(-c4cccc(-c5cnn(C)c5)c4)nc3)cn2)CC1 [Example 6, 5-[1-(1-Methyl-piperidin-4-yl)-1H-pyrazol-4-yl]-2-[3-(1-methyl-1H-pyrazol-4-yl)-phenyl]-pyrimidine] fall in the same range of IC50: 100 to 1000 nM for the first, 100 to 1000 nM for the second.

First: CN1C[C@H]2CC1CN2C(=O)Cn1cc(-c2cnc(-c3cccc(-c4cnn(C)c4)c3)nc2)cn1 (stereo in doubt) [Example 148, 1-((1R,4R)-5-Methyl-2,5-diaza-bicyclo[2.2.1]hept-2-yl)-2-(4-{2-[3-(1-methyl-1H-pyrazol-4-yl)-phenyl]-pyrimidin-5-yl}-pyrazol-1-yl)-ethanone]
Second: Cn1cc(-c2cccc(-c3ncc(-c4cnn(CC(=O)N5CCCC5)c4)cn3)c2)cn1 [Example 9, 2-(4-{2-[3-(1-Methyl-1H-pyrazol-4-yl)-phenyl]-pyrimidin-5-yl}-pyrazol-1-yl)-1-pyrrolidin-1-yl-ethanone]
The IC50 of the first is higher: 1000 to 5000 nM for the first, 100 to 1000 nM for the second.

Cn1cc(-c2cccc(-c3ncc(-c4cnn(C5CCCN(S(C)(=O)=O)C5)c4)cn3)c2)cn1 (stereo in doubt) [Example 272, 5-[(R)-1-(1-Methanesulfonyl-piperidin-3-yl)-1H-pyrazol-4-yl]-2-[3-(1-methyl-1H-pyrazol-4-yl)-phenyl]-pyrimidine] and CC(=O)N1CCCC(n2cc(-c3cnc(-c4cccc(-c5cnn(C)c5)c4)nc3)cn2)C1 (stereo in doubt) [Example 274, 1-[3-((R)-4-{2-[3-(1-Methyl-1H-pyrazol-4-yl)-phenyl]-pyrimidin-5-yl}-pyrazol-1-yl)-piperidin-1-yl]-ethanone] cannot be ordered by IC50: less than 100 nM for the first, less than 100 nM for the second.

c1cncc(-c2cccc(-c3ncc(-c4cnn(C5CCNCC5)c4)cn3)c2)c1 [Example 2, 5-(1-(piperidin-4-yl)-1H-pyrazol-4-yl)-2-(3-(pyridin-3-yl)phenyl)pyrimidine hydrochloride] and c1cc(-c2ccoc2)cc(-c2ncc(-c3cnn(C4CCNCC4)c3)cn2)c1 [Example 7, 2-(3-Furan-3-yl-phenyl)-5-(1-piperidin-4-yl-1H-pyrazol-4-yl)-pyrimidine Hydrochloride] fall in the same range of IC50: 100 to 1000 nM for the first, 100 to 1000 nM for the second.

Compared with Cn1cc(-c2cccc(-c3ncc(-c4cn[nH]c4)cn3)c2)cn1 [Example 3, 2-[3-(1-methyl-1H-pyrazol-4-yl)phenyl]-5-(1H-pyrazol-4-yl)pyrimidine], Cn1cc(-c2cccc(-c3ncc(-c4cnn(CC(=O)O)c4)cn3)c2)cn1 [Example 8] is higher in IC50: 100 to 1000 nM for the first, 1000 to 5000 nM for the second.

Cn1cc(-c2cccc(-c3ncc(-c4cnn(C5CCN(C(=O)C(F)(F)F)CC5)c4)cn3)c2)cn1 [Example 4, 2,2,2-Trifluoro-1-[4-(4-{2-[3-(1-methyl-1H-pyrazol-4-yl)-phenyl]-pyrimidin-5-yl}-pyrazol-1-yl)-piperidin-1-yl]-ethanone] and Cn1cc(-c2cccc(-c3ncc(-c4cnn(CCN5CCOCC5)c4)cn3)c2)cn1 [Example 10, 4-[2-(4-{2-[3-(1-Methyl-1H-pyrazol-4-yl)-phenyl]-pyrimidin-5-yl}-pyrazol-1-yl)-ethyl]-morpholine] fall in the same range of IC50: 100 to 1000 nM for the first, 100 to 1000 nM for the second.
